Measurements published in patent US12729458B2, “Discovery and evolution of biologically active metabolites” (The Regents of the University of Colorado, a Body Corporate, priority 2020, dated 2026).
“Also recorded” adds a separate entry of the source. Where two headings read alike, the source gives them in different places.

Tests used:
Type in all cases: biochemical, H. sapiens
PTP1B (PTP1B1-321) = molecular target: T1, PTP1B (PTP1B1-321) (Homo sapiens, UniProt P18031); assay: PTP1B-catalyzed hydrolysis of pNPP in the presence of terpenoids (enzyme kinetics, IC50 from best-fit models); conditions: for IC50: 15 mM pNPP, 10% DMSO; for Ki: PTP1B1-321
T1 construct: His-tag; made in house; host or cells: E. coli BL21 (DE3), pET21b
T1 sequence (P18031 1-321): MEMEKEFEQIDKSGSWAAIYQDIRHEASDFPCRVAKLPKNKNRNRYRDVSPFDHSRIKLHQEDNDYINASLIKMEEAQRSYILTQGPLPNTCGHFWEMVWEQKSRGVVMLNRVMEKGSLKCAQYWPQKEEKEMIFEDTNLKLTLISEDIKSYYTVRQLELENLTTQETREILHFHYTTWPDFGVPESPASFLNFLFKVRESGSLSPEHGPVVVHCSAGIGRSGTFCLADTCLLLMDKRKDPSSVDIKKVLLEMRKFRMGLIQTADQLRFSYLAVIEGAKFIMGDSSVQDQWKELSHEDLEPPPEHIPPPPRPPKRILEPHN
Protocol: Enzyme kinetics. To examine terpenoid-mediated inhibition, PTP1B-catalyzed hydrolysis of p-nitrophenyl phosphate (pNPP) was measured in the presence of various concentrations of terpenoids. Each reaction included PTP1B ([…]), pNPP (0.33, 0.67, 2, 5, 10, and 15 mM), inhibitors (110 μM, 50 μM, and 15 μM for amorphadiene; 100 μM, 50 μM, and 16.7 μM for taxadiene), and buffer (50 mM HEPES pH=7.5, 0.5 mM TCEP, 50 μg/ml BSA, 10% DMSO). The formation of p-nitrophenol was monitored by measuring absorbance at 405 nm every 10 seconds for 5 minutes on a Spectramax M2 plate reader.
Kinetic models were evaluated in three steps: (i) Initial-rate measurements collected in the absence and presence of inhibitors were fitted to Michaelis-Menten and inhibition models, respectively (here, the nlinfit and fminsearch functions from MATLAB were used). (ii) An F-test was used to compare the mixed model to the single-parameter model with the least sum squared error (here, the fcdf function from MATLAB was used to assign p-values), and the mixed model was accepted when p<0.05.
The MATLAB function “nlparci” was used to determine the confidence intervals of kinetic parameters, and those intervals were propagated to estimate corresponding confidence on IC50's.
(§1) Enzyme kinetics. To examine terpenoid-mediated inhibition, we measured PTP-catalyzed hydrolysis of p-nitrophenyl phosphate (pNPP) or 4-methylumbelliferyl phosphate (4-MUP, used when KM for pNPP was large) in the presence of various concentrations of terpenoids. Each reaction included PTP (0.05 μM PTP1B/TCPTP or 0.1 μM SHP1/SHP2 in 50 mM HEPES, 0.5 mM TCEP, 50 μg/ml BSA), pNPP (0.33, 0.67, 2, 5, 10, and 15 mM) or 4-MUP (0.13, 0.27, 0.8, 2.27, 2.93, 4.53, 7.07, and 8 mM), inhibitor (with concentrations listed in the figures), buffer (50 mM HEPES pH=7.3, 50 μg/ml BSA), and DMSO at 10% v/v. We monitored the formation of p-nitrophenol by measuring absorbance at 405 nm every 10 seconds for 5 minutes on a SpectraMax M2 plate reader and the formation of 4-methylumbelliferyl by measuring fluorescence at 450 nm (370 nm ex, 435 nm cutoff, medium gain).
(§2) We used a custom MATLAB script to process all raw kinetic data. This script removed all concentration values that fell outside of either (i) the range of our standard curve (absorbance/fluorescence vs. μM; FIG. 39) or (ii) the initial rate regime (>10% of the pNPP or 4-MUP concentration used in the assay). When this step reduced kinetic dataset to fewer than ten points, we re-measured those datasets to collect at least ten. We fit final datasets, in turn, with a linear regression model (using Matlab's backslash operator).
We evaluated kinetic models in three steps: (i) We fit initial-rate measurements collected in the absence and presence of inhibitors to Michaelis-Menten and inhibition models, respectively (here, we used the nlinfit and fminsearch functions from MATLAB; TABLE 12). (ii) We used an F-test to compare the mixed model to the single-parameter model with the least sum squared error (here, we used the fedf function from MATLAB to assign p-values), and we accepted the mixed model when p<0.05.

[1] = molecular target: T2, TC-PTP (TCPTP1-317; TCPTP292 in FIG. 12) (Mus musculus, UniProt Q06180); assay: TC-PTP-catalyzed hydrolysis of pNPP in the presence of terpenoids; conditions: TCPTP1-317
T2 construct: His-tag; made in house; host or cells: E. coli BL21 (DE3), pET16b
T2 sequence (Q06180 1-317): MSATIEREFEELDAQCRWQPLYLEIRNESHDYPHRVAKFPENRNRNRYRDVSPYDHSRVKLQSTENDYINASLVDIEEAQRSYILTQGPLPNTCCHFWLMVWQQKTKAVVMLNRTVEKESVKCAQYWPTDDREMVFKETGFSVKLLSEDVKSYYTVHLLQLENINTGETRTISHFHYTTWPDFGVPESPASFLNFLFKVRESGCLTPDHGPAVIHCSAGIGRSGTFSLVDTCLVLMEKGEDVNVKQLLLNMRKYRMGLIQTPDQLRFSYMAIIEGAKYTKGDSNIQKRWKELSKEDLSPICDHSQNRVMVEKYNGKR
Protocol: as §1, §2
(§3) We evaluated kinetic models in three steps: (i) We fit initial-rate measurements collected in the absence and presence of inhibitors to Michaelis-Menten and inhibition models, respectively (here, we used the nlinfit and fminsearch functions from MATLAB; TABLE 12). (ii) We used an F-test to compare the mixed model to the single-parameter model with the least sum squared error (here, we used the fedf function from MATLAB to assign p-values), and we accepted the mixed model when p<0.05. (iii) We used the Akaike's Information Criterion (AIC) to compare the best-fit single parameter model to each alternative single parameter model, and we accepted the “best-fit” model when the difference in AIC (Δi) exceed 5 for all comparisons.^78 We note: For AD, AB, and (+) 1-(10),4-cadinadiene this criterion was not met; both noncompetitive and uncompetitive models, however, yielded indistinguishable ICso's.
(§4) We used the MATLAB function “nlparci” to determine the confidence intervals of kinetic parameters, and we propagated those intervals to estimate corresponding confidence intervals for each IC50.

[2] = tested on: TC-PTP (TCPTP1-317; TCPTP292 in FIG. 12); assay: as above; conditions: PTP1B321 vs TCPTP292 / TC-PTP, pNPP
Protocol: as §1, §2, §3, §4

[3] = Example 2, HEPES pH 7.3, ± 95% confidence interval
[4] = competitive model of inhibition, read-out: Fit par. Ki, competitive model
[5] = mixed model, competitive constant, read-out: Fit par. Ki,c, mixed model
[6] = mixed model, uncompetitive constant, read-out: Fit par. Ki,u, mixed model
[7] = noncompetitive model of inhibition, read-out: Fit par. Ki, noncompetitive model
[8] = uncompetitive model of inhibition, read-out: Fit par. Ki, uncompetitive model

SMILES	IC50 (PTP1B (PTP1B1-321); Example 1, HEPES pH 7.5)	IC50 (PTP1B (PTP1B1-321); [3])	Ki (PTP1B (PTP1B1-321); [4])	Ki (PTP1B (PTP1B1-321); [5])	Ki (PTP1B (PTP1B1-321); [6])	Ki (PTP1B (PTP1B1-321); [7])	Ki (PTP1B (PTP1B1-321); [8])	simultaneous binding with TCS401 (Dixon plot) (PTP1B (PTP1B1-321); Vo^−1 vs. [TCS401] at various concentrations of AD)	simultaneous binding with orthovanadate (Dixon plot) (PTP1B (PTP1B1-321); Vo^−1 vs. [orthovanadate] at various concentrations of AD)	model (mode) of PTP1B inhibition from Michaelis-Menten fits (PTP1B (PTP1B1-321); pNPP initial rates)	Ki [1, 6]	Ki [1, 7]	Ki [1, 8]	potency against PTP1B relative to TC-PTP (selectivity from IC50's) [2]	potency against PTP1B relative to TC-PTP (selectivity from IC50's) ([2]; listed as AD)	Ki [1, 5]	potency against PTP1B relative to TC-PTP (selectivity from IC50's) ([2]; listed as AB)
C=C(C)[C@@H]1CC[C@@H](C)[C@@H]2CCC(C)=C[C@@H]21 [amorphadiene]	~53 µM	53 ± 8 µM	2.85 µM	86.2 µM	50.1 µM	52.6 µM	46.3 µM	cannot bind simultaneously	can bind simultaneously	noncompetitive or uncompetitive inhibition; also recorded: noncompetitive inhibition	356 µM	400 µM	356 µM	~ five-fold; also recorded: much more potently	five- to six-fold		
CC(C)=CCC=C(C)C1CC=C(C)CC1 (stereo not drawn) [α-bisabolene]	~20 µM	13 ± 2 µM	1.05 µM	9.51 µM	13.7 µM	13.1 µM	11.7 µM				69.3 µM	76.2 µM	69.2 µM	much more potently		3610 µM	five- to six-fold
